Values quoted from earlier work, collected in patent publication US5177084A, “Therapeutic use of substituted benzenes, formulations thereof and novel substituted benzenes” (Merck Sharp & Dohme Ltd., priority 1989, dated 1993).

Details: literature report, test not specified

Compound: COc1ccc(C2(O)CN3CCC2CC3)cc1.O=C(O)C(=O)O (centres unmarked) [Example 2, 3-Hydroxy-3-(4-Methoxyphenyl)quinuclidine Hydrogen Oxalate]
- pharmacological activity: did not display pharmacological activity

Compound: O=C(O)C(=O)O.OC1(c2ccc(Cl)cc2)CN2CCC1CC2 (centres unmarked) [Example 4, 3-(4-Chlorophenyl)-3-hydroxy quinuclidine Hydrogen Oxalate]
- pharmacological activity: did not display pharmacological activity
